experiment: gradient 5% acetonitrile 3 min, to 50% in 2 min, to 85% in 15 min, held 3 min, 100 µL/min; conditions: column: Zorbax Extend-C18 2.1 x 50 mm; eluents: water / acetonitrile, 0.1% formic acid
Summary of the method: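 Standards, all pure, were combined into mixtures of ~100 molecules and run at 100 μL/min on a Zorbax Extend-C18 column (2.1 × 50 mm, 1.8 μm) with water and acetonitrile, each containing 0.1% formic acid. A coupled quadrupole time-of-flight mass spectrometer operated in positive and negative ionization mode. Retention time values come from computationally picked adduct peaks, each inspected manually.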

Row | RP-LC retention time | SMILES
1 | 1200 s | CCOc1cccc(C2c3[nH]c4ccccc4c3CCN2C(=O)C2CCC2)c1 (stereo not given)
2 | 997 s | COc1ccc(C2(C(=O)N3CCC(OCCOc4ccc(F)cc4)CC3)CC2)cc1
3 | 626 s | O=C(NC1CCN(c2cc(-c3ccc(Cl)cc3)[nH]n2)C1)c1ccc2nc[nH]c2c1 (stereo not given)
4 | 623 s | CCN1C(=O)c2cccnc2Sc2cc(CNC(=O)c3ccncc3)ccc21
5 | 677 s | O=C(CSc1nccc(N2CCCC2)n1)N1CCN(c2ccccc2F)CC1
6 | 915 s | CC(C)n1c(N2CCN(C(=O)c3cc4ccccc4[nH]3)CC2)cc(=O)n(C(C)C)c1=O
7 | 701 s | O=C(Cn1nc2nc(Nc3ccc(F)cc3)ccn2c1=O)NC1CCCC1
8 | 776 s | COc1ccc(NC(=O)c2cnc(N3CCN(c4ccc(F)cc4)CC3)nc2N)cc1
9 | 858 s | O=C(NCc1cccs1)c1cccc2c1CCN2C(=O)c1ccc(F)cc1
10 | 715 s | O=C1CC(c2nc(-c3ccccn3)no2)CN1c1ccc2c(c1)OCCO2 (stereo not given)
11 | 555 s | CN(CCc1ccccn1)C(=O)c1cccc(N2CCNC(c3ccccc3)C2)n1 (stereo not given)
12 | 828 s | COc1ccc(OC)c(NC(=O)N2CCC(N3CCN(Cc4ccccc4)C3=O)CC2)c1
13 | 615 s | Cc1ccc(-c2nc3ccccc3[nH]2)cc1NC(=O)C1CCCO1 (stereo not given)
14 | 669 s | CCc1ccc(S(=O)(=O)Nc2cc(C(=O)O)ccc2N2CCN(c3ccccn3)CC2)cc1
15 | 826 s | Cc1ccc(-c2cn3c(CC(=O)NCc4ccccc4)csc3n2)cc1C
16 | 1010 s | CC(C)n1c(=O)sc2cc(S(=O)(=O)N3CCC(C(=O)Nc4cccc(F)c4)CC3)ccc21
17 | 553 s | CCOC(=O)CC1(NC(=O)N2CCC(c3nc4ccncc4n3C)C2)CCCCC1 (stereo not given)
18 | 896 s | CCOc1ccccc1N1CCN(S(=O)(=O)c2nn(CC)cc2C(=O)NCC(=O)OC)CC1
19 | 613 s | O=C(NC1CC1)c1ccc(-c2ccc(N3CCCCC3)nc2)cc1
20 | 700 s | Cc1ccc(-c2noc(C(=O)N3CCCC3)n2)cc1S(=O)(=O)N1CCN(c2ccccn2)CC1

Row | RP-LC retention time | SMILES
21 | 646 s | Cc1nc(CCNC(=O)Cc2cccs2)no1
22 | 566 s | CCN1CCN(CCCNC(=O)C2CCCN(C(=O)c3cc4sccc4n3CC)C2)CC1 (stereo not given)
23 | 855 s | COc1ccc(-c2nc(CNC(=O)c3ccc(-n4cccn4)nn3)cs2)cc1
24 | 749 s | O=C(NCc1ccccc1)c1cn(Cc2ccc(NC(=O)C3CCCCC3)cc2)cn1
25 | 919 s | CC(C)NC(=O)c1csc(N2CCCCC2)n1
26 | 813 s | Cc1ccccc1Cn1nc2ccc(S(=O)(=O)N3CCCCC3)cn2c1=O
27 | 712 s | COc1ccc(Cc2nnc(C3CCN(C(=O)c4cccc(N(C)C)c4)CC3)s2)cc1
28 | 956 s | CC1CCN(C(=O)c2ccc(OCC3CCCN(C(=O)c4ccc(C#N)cc4)C3)cc2)CC1 (stereo not given)
29 | 652 s | Cc1ccc(CNC(=O)NCCn2cnc3cc(C(=O)NC4CCCC4)ccc32)cc1
30 | 708 s | Cn1ncc2c(N3CCOCC3)nc(C(=O)NCc3ccc(F)cc3)nc21
31 | 991 s | O=C(NC1CCCCCC1)c1csc(-c2ccc(N3CCOCC3)nc2)n1
32 | 823 s | Cc1ccc(-c2noc(-c3cccnc3N3CCN(Cc4ccccc4)CC3)n2)cc1
33 | 587 s | Cc1nc(Nc2ccc(NC(=O)c3ccc(Br)o3)cc2)cc(-n2ccnc2)n1
34 | 649 s | CCn1cnnc1C1CCCCN1C(=O)Cc1c[nH]c2ccccc12 (stereo not given)
35 | 840 s | CC(=O)N1CCc2sc(C(=O)N3CCN(c4cccc(Cl)c4)CC3)cc2C1
36 | 689 s | O=C(c1cnccn1)N1CCCn2nc(-c3cccs3)cc2C1
37 | 861 s | O=C(c1ccco1)N1CCCn2nc(-c3cccc(Cl)c3)cc2C1
38 | 805 s | O=C(Cn1nc2c(N3CCCCCC3)nccn2c1=O)Nc1cccc(C(F)(F)F)c1
39 | 567 s | O=C(NC1CC1)c1ccc(N2CCC(NCc3ccc(F)c(F)c3)C2)nc1 (stereo not given)

The next lines start with the compound.

Row | SMILES | RP-LC retention time
40 | CCS(=O)(=O)N1CCC(N2C(=O)[C@H](OCCOC)[C@@H]2c2ccncc2)CC1 | 561 s
41 | CCNC(=O)c1nc(C(=O)NCc2ccc(F)cc2)cs1 | 751 s
42 | CCCn1cnnc1C1CCCCN1C(=O)CCc1c(C)nn(C)c1C (stereo not given) | 589 s
43 | O=C(NCCOC(=O)c1ccco1)C(=O)Nc1nc(-c2ccccc2)cs1 | 887 s
44 | COc1ccc(C(=O)NCc2nnc(SCC(=O)N3CCCc4ccccc43)o2)cc1 | 677 s
45 | CC(C)Cn1cc(CCNS(=O)(=O)c2ccccc2Cl)c2cccnc21 | 922 s
46 | Cc1ccc(N2CC(C(=O)Nc3ccc4c(c3)C(=O)N3CCCCC3CCO4)CC2=O)cc1 (stereo not given) | 762 s
47 | CN(C)S(=O)(=O)Nc1ccccn1 | 630 s
48 | Cc1oc2ccn(Cc3ccccc3F)c(=O)c2c1C(=O)NCc1cccc(F)c1 | 726 s
49 | COc1ccc(OCc2ccc(C(=O)Nc3ccc4c(c3)OCO4)o2)cc1 | 879 s
50 | CCC(=O)NCc1nc2c(n1C)CN(S(=O)(=O)Cc1ccc(Cl)cc1)CC2 | 539 s
51 | CN(C)c1cccc(C(=O)NCC(=O)Nc2nc3ccccc3[nH]2)c1 | 594 s
52 | Cc1cc(C)cc(NC(=O)Nc2ccc3nnc(C)n3c2)c1 | 661 s
53 | Cc1ccc(Nc2c(-c3ccc([N+](=O)[O-])cc3)nc3ccc(C)cn23)cc1 | 838 s
54 | CCC(=O)N1CCC2(C1)C(=O)N(C)c1ccc(OC)cc12 (stereo not given) | 652 s
55 | COC(=O)c1c(C(=O)OC)c2c3ccccc3ccn2c1C(=O)OC | 916 s
56 | O=C(CCCS(=O)(=O)c1ccccc1)Nc1nnc(-c2ccsc2)o1 | 674 s
57 | CC(C)c1nc2c(c(=O)n1CC(=O)NCc1ccccc1)CN(Cc1ccccc1)CC2 | 659 s
58 | Cc1nnc(-c2ccc3ccn(CC(=O)Nc4ccc(C)c(C)c4)c3c2)o1 | 882 s
59 | Cc1ccc(NC(=O)C(=O)c2ccc[nH]2)cc1 | 894 s
60 | CCC(=O)N1CCc2cc(N3CC(C(=O)Nc4cc(Cl)ccc4OC)CC3=O)ccc21 (stereo not given) | 828 s
61 | COC(=O)C1=CN(c2cc(C)ccc2OC)c2ccccc2S1(=O)=O | 894 s
62 | O=C1NCCCn2cc(S(=O)(=O)Nc3ccc4c(c3)OCCO4)cc21 | 622 s
63 | Cc1ccc(-n2nnnc2CN2CCN(S(=O)(=O)N(C)C)CC2)cc1 | 756 s
64 | CO[C@H]1C(=O)N(C(C)C)[C@H]1C1CCN(C(=O)CN2C(=O)CCC2=O)CC1 | 607 s
65 | O=C(CCC(=O)N1CC(n2cnnc2C2CCOCC2)C1)N1CCOCC1 | 550 s

Row | SMILES | RP-LC retention time
66 | CCOc1ccc(Nc2c3ccccc3nc3ccccc23)cc1 | 795 s
67 | CCn1cc(S(=O)(=O)Nc2cc(C)ccc2F)c2cccnc21 | 846 s
68 | CC(C)Cn1cc(CCNC(=O)Nc2cccc(Cl)c2)c2cccnc21 | 895 s
69 | CC1CCC(NC(=O)C2CCCN(S(=O)(=O)c3c[nH]c(C(=O)N4CCCC4)c3)C2)CC1 (stereo not given) | 784 s
70 | O=C(CC1CCCC1)NCCC1CCN(C(=O)Nc2cc(F)cc(F)c2)CC1 | 905 s
71 | CCOC(=O)Cc1csc(NC(=O)CN2CC(c3nc(C4CC4)no3)C2)n1 | 575 s
72 | CCOC(=O)c1c(C)[nH]c(C(=O)N2CCC(C(C)C(=O)NCc3ccc(F)cc3)CC2)c1C (stereo not given) | 805 s
73 | Cc1cc(C)cc(OCc2nc(CCN(C)C(=O)c3ccco3)no2)c1 | 873 s
74 | Cc1ccc(NC(=O)CCc2nc(CSc3nnc(-c4ccccc4)o3)no2)cc1Cl | 1030 s
75 | CCc1ccc(CNC(=O)Cn2c(C)cc(-c3nnc(C4CCC4)o3)c2C)cc1 | 965 s
76 | COc1cc2c(cc1CNC(=O)COc1ccc(F)cc1)OCCCO2 | 874 s
77 | CS(=O)(=O)N1C[C@H]2CCN(Cc3cccc(Cl)c3F)C[C@H]21 | 607 s
78 | COc1ccc(Br)c2c1-c1nc(NC(=O)c3cccc(C)c3)sc1C2 | 1140 s
79 | CCCN1CCN(c2ccc(NC(=O)C3CCC3)c(C(=O)O)c2)CC1 | 561 s
80 | NS(=O)(=O)c1ccc(Cl)c(-c2nnc(-c3ccccc3)o2)c1 | 788 s
81 | O=C(Nc1ccc2c(c1)OCCO2)N1CCN(c2nc3ccccc3n(Cc3ccccc3)c2=O)CC1 | 1010 s
82 | Cn1cnc(S(=O)(=O)N2CC(n3cc(C(=O)NCC4CC4)nn3)C2)c1 | 622 s
83 | Cc1cc(C)cc(NC(=O)N(C)CCc2noc(COc3ccccc3)n2)c1 | 949 s
84 | CN(C)C(=O)CN1CCN(c2ccccc2)CC1 | 792 s
85 | CCOc1ccccc1CNC(=O)COc1nc(CC)nc2oc(C)c(C)c12 | 1050 s
86 | CCCN(C(=O)CC(=O)OCC)c1nc(-c2ccc(C)cc2)cs1 | 1250 s
87 | Clc1ccccc1-c1nnc(-c2ccc(-n3ccnc3)nc2)o1 | 658 s
88 | CCc1noc(NC(C)=O)c1-c1ccc(C)c(S(=O)(=O)NCCC(C)C)c1 | 856 s
89 | CCOC(=O)Cc1nnc(-c2cc(OC)cc(OC)c2)o1 | 836 s
90 | CCOc1ccc(S(=O)(=O)N2CCCC(C(=O)NC)C2)cc1C (stereo not given) | 788 s

From the METLIN SMRT retention time set (Domingo-Almenara et al. 2019)
